The test system of series [1] is DHODH KO HT-1080 cells. The series is described as follows: Cell viability / cell death (ferroptosis) in DHODH KO HT-1080 cells. It counts as cell-based, human. Conditions: for protection against GPX4 inhibition (RSL3 or ML162)-induced ferroptosis: DHODH KO, pretreatment 10 μM, 24 hours. Here is the method: Knockout of DHODH, ACSL4 and COQ2 in human cell lines was performed using single guide RNAs (sgRNAs) and doxycycline (DOX)-inducible CRISPR-Cas9 expression system as described in our recent publication (Lee, H., et al., Nature cell biology 22, 225-234 (2020)). sgRNAs were cloned into the lentiviral lentiGuide vector. LentiGuide clones were transfected into HEK293T cells with psPAX2 packaging plasmid and pMD2.G expressing plasmid. Cells were infected with lentivirus with 0.8 μg/ml polybrene, selected with puromycin (1 μg/ml, InvivoGen), blasticidin (2 μg/ml, InvivoGen) or hygromycin B (2 μg/ml, InvivoGen) for 3 days and then single cells were sorted into 96-well plates. Single cells were maintained in DMEM with 10% (v/v) FBS and 1% (v/v) penicillin/streptomycin at 37° C. in an incubator with 20% O2 and 5% CO2 for 3-4 weeks and each colony was verified by western blot to confirm the target gene deletion. To generate cell lines with DOX-inducible CRISPR-Cas9-mediated gene deletion, cells were infected with lentivirus, selected with puromycin (1 μg/ml, InvivoGen), blasticidin (2 μg/ml, InvivoGen) or hygromycin B (2 μg/ml, InvivoGen) for 2 days and then single cells were sorted into 96-well plates. Once cell lines were established, 1 μg/ml of DOX (Sigma-Aldrich) was added to the media to induce target gene deletion for 48 hours after selection; then cells were cultured in DOX-free media for subsequent analyses.
(§1) Viable cells were measured using Cell Counting Kit-8 (CCK-8, Dojindo) as previously described (Koppula, P., Zhang, Y., Shi, J., Li, W. & Gan, B, J Biol Chem 292, 14240-14249 (2017); Liu, X. & Gan, B, Cell Cycle 15, 3471-3481 (2016)). Briefly, cells were seeded onto 96-well plates at a density of 2×10^4 per well. The next day, cells were treated with GPX4 or DHODH inhibitors for 4 hours. Subsequently, cells exposed to 10 μl CCK-8 reagent (100 μl medium per well) for 1 hour at 37° C., 5% CO2 in an incubator. The absorbance at a wavelength of 450 nm was determined using a FLUOstar Omega microplate reader (BMG Labtech).
(§2) Cell death was measured by propidium iodide (Roche) staining using a flow cytometer, as previously described (Dai, F., et al., Proc Natl Acad Sci USA 114, 3192-3197 (2017); Zhang, Y., et al., Cancer Res 80, 2243-2256 (2020)). For propidium iodide-staining, cells were seeded at a density of 50% confluence into 12-well plates. The next day, cells were treated with different reagents. To measure cell death, the cells were collected (including floating dead cells), stained with 5 μg/ml propidium iodide and the percentage of the propidium iodide-positive dead cell population was analyzed using the flow cytometer BD Accuri C6 (BD Biosciences) and an FL2 detector. A minimum of 10,000 single cells were analyzed per well and all experiments were carried out at least in triplicate.

Series [2] relates to multiple cancer cell lines. The series is described as follows: Global metabolomic analysis. It counts as cell-based, human. The following applies: short-term (2-hour) treatment, 10 μM. On the procedure: (§3) Metabolomic analysis was performed as previously described (Liu, X., et al., Nat Cell Biol 22, 476-486 (2020)). Cells were seeded on 35 mm culture plates at a density sufficient to ensure approximately 70-80% confluence at the time of extraction. For metabolic tracer analysis of pyrimidine synthesis, HT-1080 cells were treated with RSL3 and/or Lip-1 for 2 hours and then were shifted to drug-free media containing amide-^15N-glutamine (this time point is defined as 0 hour). Metabolites were extracted at the indicated time points for subsequent analyses. Metabolites were extracted by rapidly aspirating the culture medium and then adding 0.6 mL of an 80% methanol: 20% water mixture at dry ice temperature. The plates were incubated on dry ice for 15 minutes before the cell material was scraped into eppendorf tubes pre-chilled on ice. The cell debris was pelleted by centrifugation at 13,000 RCF for 5 minutes at 4° C. and the supernatant was transferred to a fresh tube and stored on dry ice until analysis. Just prior to analysis, 500 μL of extract was dried under nitrogen gas flow and then resuspended in 100 μL water.
(§4) The complete platform consists of an Accela 1250 HPLC system, Accela Open Autosampler, MayLab Mistraswitch column oven and Exactive orbitrap mass spectrometer, controlled by the Xcalibur 3.0.63 software package. Chromatography was performed with a Phenomenex Synergi Hydro-RP column (100×2 mm, 2.5 μm particle size). Solvent A is 10 mM tributylamine and […] acetic acid in water; Solvent B is methanol. The gradient is: 0 min, 0% B; 2.5 min, 0% B; 5 min, 20% B; 7.5 min, 20% B; 13 min, 55% B; 15.5 min, 95% B; 18.5 min, 95% B; 19 min, 0% B; 25 min, 0% B. The injection volume was 10 μL. The column temperature was set to 40° C., and the flow rate was 200 μL/min. The Exactive was operated in negative ionization mode with an electrospray ionization interface. The instrument parameters are as follows: sheath gas flow rate 30 (arbitrary units), aux gas flow rate 10 (arbitrary units), sweep gas flow rate 3 (arbitrary units), spray voltage 3 kV, capillary temperature 325° C., capillary voltage −25 V, tube lens voltage −50 V. The scan range was set to 80-1000 m/z, with a maximum inject time of 250 ms, resolution of 100,000 at 1 Hz, and AGC (automatic gain control) target 1E6. The data were analyzed using the MAVEN software suite57 with signal intensity determined as the Peak Area (Top). For metabolic labeling experiments, the data were corrected to account for the natural abundance of nitrogen-15 using IsoCorrectoR (Heinrich, P., et al., Sci Rep 8, 17910 (2018)).

The next series concerns GPX4^high HT-1080 cells. The series is described as follows: Cell viability / cell death (ferroptosis) in HT-1080 cells. The following applies: 24 hours; for protection against GPX4 inhibition (RSL3 or ML162)-induced ferroptosis: DHODH WT, pretreatment 10 μM. The format is cell-based, human. Here is the method: Briefly, cells were seeded onto 96-well plates at a density of 2×10^4 per well. The next day, cells were treated with GPX4 or DHODH inhibitors for 4 hours. Subsequently, cells exposed to 10 μl CCK-8 reagent (100 μl medium per well) for 1 hour at 37° C., 5% CO2 in an incubator. The absorbance at a wavelength of 450 nm was determined using a FLUOstar Omega microplate reader (BMG Labtech).
For propidium iodide-staining, cells were seeded at a density of 50% confluence into 12-well plates. The next day, cells were treated with different reagents. To measure cell death, the cells were collected (including floating dead cells), stained with 5 μg/ml propidium iodide and the percentage of the propidium iodide-positive dead cell population was analyzed using the flow cytometer BD Accuri C6 (BD Biosciences) and an FL2 detector. A minimum of 10,000 single cells were analyzed per well and all experiments were carried out at least in triplicate.

The subject of a further series is GPX4^low NCI-H226 cells. The series is described as follows: Cell viability / cell death (ferroptosis) in NCI-H226 cells. It counts as cell-based, human. The following applies: pretreatment 48 hours (C-Asp, DHO, OA 100 μM; uridine 50 μM), RSL3 4 hours. On the procedure:
as §1, §2

Series [3] deals with GPX4^high and GPX4^low cancer cell lines. The series is described as follows: Cell viability in panel of GPX4^high and GPX4^low cancer cell lines. It counts as cell-based, human. The following applies: supplementation 100 μM 48 hours, RSL3 4 hours. Here is the method:
as §1

Another series concerns NCI-H226 cells. The series is described as follows: Intracellular metabolite levels upon supplementation. It counts as in vitro ADME, human. Conditions: for intracellular levels upon supplementation: 100 μM, 48 hours. On the procedure: as §3, §4
For series [4], the system named is DHODH KO HT-1080 cells. The series is described as follows: Mitochondrial lipid peroxidation (mito-BODIPY) in DHODH KO HT-1080 cells. The format is cell-based, human. Conditions: pretreatment 10 μM, 24 hours.

On to `COc1ccc(N(C(=O)CCl)C(C(=O)NCCc2ccccc2)c2cccs2)cc1Cl` (stereo not shown) [ML162], for which, in the series with DHODH KO HT-1080 cells [1] (uridine-supplemented conditions), the “sensitization by DHODH deletion to compound-induced lipid peroxidation and ferroptosis” value is given as “markedly sensitized”. Besides, in series [2], the C-Asp level entry is “marked depletion” and the uridine level result was “concomitant accumulation”.
“N-benzyloxycarbonyl-val-ala-asp(o-me) fluoromethyl ketone [Z-VAD-FMK]”: the “rescue of DHODH inhibition-induced cell death” value in the series on GPX4^high HT-1080 cells (BQR, pretreatment Lip-1 or ZVF 10 μM) is listed as “the opposite was observed”.
As for `O=C1CC(C(=O)O)NC(=O)N1` (stereo not shown) [DHO, dihydroorotate], the “effect of supplementation on cellular sensitivity to GPX4 inhibition (RSL3)” value (“effect … to GPX4 inhibition (RSL3)” for short) with GPX4^low NCI-H226 cells was “protected cells from”. Further, the “protecting (DHO) or sensitizing (OA) effect in GPX4^low versus GPX4^high cell lines” value in series [3] was “much more pronounced”. Moreover, the “intracellular levels upon supplementation” value in the series on NCI-H226 cells is listed as “drastically increased”.
Turning to `COC1=C(OC)C(=O)C(CCCCCCCCCC[P+](c2ccccc2)(c2ccccc2)c2ccccc2)=C(C)C1=O` [mitoQ, [10-(4,5-dimethoxy-2-methyl-3,6-dioxo-1,4-cyclohexadien-1-yl)decyl] triphenyl-phosphonium, monomethanesulfonate], in the series on GPX4^high HT-1080 cells, the “protection against GPX4 inhibition (RSL3 or ML162)-induced ferroptosis” value (“protection against GPX4 inhibition” for short) was “provided limited protection”.
In the case of `O=C(O)c1cc(=O)[nH]c(=O)[nH]1` [OA, orotate], the “effect … to GPX4 inhibition (RSL3)” value with GPX4^low NCI-H226 cells is “sensitized cells to”. Further, the “protecting (DHO) or sensitizing (OA) effect in GPX4^low versus GPX4^high cell lines” value in series [3] was “much more pronounced”. The “intracellular levels upon supplementation” value with NCI-H226 cells is “drastically increased”.
Take `CC1(C)CC(NC(=O)C[P+](c2ccccc2)(c2ccccc2)c2ccccc2)CC(C)(C)N1[O]` [mito-TEMPO, 2-(2,2,6,6-tetramethylpiperidin-1-oxyl-4-ylamino)-2-oxoethyl) triphenylphosphonium chloride]: in the series with DHODH KO HT-1080 cells [1], the “protection against GPX4 inhibition” value is given as “provided substantial protection”. Besides, the “suppression of GPX4 inhibitor-induced mitochondrial lipid peroxidation” value in the series with DHODH KO HT-1080 cells [4] was “could be suppressed”.
As to `CC1(C)CCCC(C)(C)N1[O]` [TEMPO, 2,2,6,6-tetramethyl-1-piperidinyloxy], the “protection against GPX4 inhibition” value in the series on DHODH KO HT-1080 cells [1] and in the series with GPX4^high HT-1080 cells was “rescued” each time. The “suppression of GPX4 inhibitor-induced mitochondrial lipid peroxidation” value in the series on DHODH KO HT-1080 cells [4] is “could be suppressed”.
Regarding `NC(=O)N[C@@H](CC(=O)O)C(=O)O` [C-Asp, N-Carbamoyl-L-aspartate], the “effect … to GPX4 inhibition (RSL3)” value in the series with GPX4^low NCI-H226 cells is “did not affect ferroptosis sensitivity”. In the series on NCI-H226 cells, the cell permeability entry is “largely impermeable to cells” and the “intracellular levels upon supplementation” value is given as “only moderately increased”.
Turning to `COc1c(O)c(C)c(CCCCCCCCCC[P+](c2ccccc2)(c2ccccc2)c2ccccc2)c(O)c1OC.CS(=O)(=O)[O-]` [mitoQH2, [10-(2,5-dihydroxy-3,4-dimethoxy-6-methylphenyl)decyl] triphenyl-phosphonium, monomethanesulfonate], the “protection against GPX4 inhibition” value in the series on DHODH KO HT-1080 cells [1] is reported as “significantly protected”; with GPX4^high HT-1080 cells, “provided limited protection”. The “suppression of GPX4 inhibitor-induced mitochondrial lipid peroxidation” value with DHODH KO HT-1080 cells [4] is given as “significantly protected”.

Values taken from US20240148757A1, “USE OF DIHYDROOROTATE DEHYDROGENASE (DHODH) INHIBITORS TO TARGET FERROPTOSIS IN CANCER THERAPY” (BOARD OF REGENTS, THE UNIVERSITY OF TEXAS SYSTEM, priority 2021, published 2024).
